Data from US20240325544A1, “CATIONIC LIPID FOR COVALENT MODIFICATION OF PEPTIDES” (PharmalN Corporation, priority 2023, published 2024).
Read-outs that look alike come from different tables or passages of the source. Marks after values point to notes of the source that are not given here. Bridge positions count the residues as written; N and C are the ends. Square brackets hold non-standard residues; d marks the D form. Peptide text beside a SMILES is read from it. * marks the point of attachment. C18 diacid = O=C(O)CCCCCCCCCCCCCCCCC(=O)*; Palmitoyl = CCCCCCCCCCCCCCCC(=O)*; Dab = NCC[C@H](N)C(=O)O; Dap = NC[C@H](N)C(=O)O; AEEA = NCCOCCOCC(=O)O; GABA = NCCCC(=O)O

Experiments:
cGMP = test: Plasma cGMP after SC bolus of natriuretic peptides in CD-1 mice (pharmacodynamics, Table 3); assay type: in vivo; conditions: SC bolus 1.0 mg/kg (≤0.45 μmol/kg), baseline 10 +/−8 pmol/ml, n = 3-5
Description: (§1) The test articles were formulated or dissolved in sterile water for injection on the same day of administration. […] Blood samples were collected via retro-orbital bleed at 2- and 6-hours post-injection, with two bleedings per animal at two different timepoints. The samples were collected in K2EDTA tubes, processed by centrifugation (2000×g; 15 m 4 eC within 30 minutes after collection), and the resulting plasma samples were stored at −80° C. Biochemical analysis: The plasma concentration of the respective natriuretic peptide was analyzed using commercially available ELISA kits from Phoenix Pharmaceuticals (Burlingame, CA): ANP ELISA (cat #EKE-005-06), BNP ELISA (cat #EKE-011-03), and CNP ELISA (cat #EKE-012-03). […] Plasma cGMP was analyzed using a commercially available kit from Abcam (ab133052, Waltham, MA).

[1] = Plasma concentration of respective natriuretic peptide by ELISA after SC bolus in CD-1 mice (pharmacokinetics, Table 3); conditions: male, CD-1, mouse, in vivo
Description: as §1

Compound | level at 2 h ([1]; sc, 1 mg/kg) [ng/mL] | level at 6 h ([1]; sc, 1 mg/kg) [ng/mL] | Plasma concentration of cGMP, 2 hr (cGMP) | Plasma concentration of cGMP, 6 hr (cGMP) | level at 2 h ([1]; mice, SC bolus 1.0 mg/kg (≤0.45 μmol/kg), 2 hr, ELISA, n = 3-5, read-out: Plasma concentration of respective Natriuretic Peptide, ANP, BNP, or CNP, 2 hr) [ng/mL] | level at 6 h ([1]; mice, SC bolus 1.0 mg/kg (≤0.45 μmol/kg), 6 hr, ELISA, n = 3-5, read-out: Plasma concentration of respective Natriuretic Peptide, ANP, BNP, or CNP, 6 hr) [ng/mL]
CC[C@H](C)[C@@H]1NC(=O)[C@H](CCCNC(=N)N)NC(=O)[C@H](CC(=O)O)NC(=O)[C@H](CC(C)C)NC(=O)[C@H](CCCCN)NC(=O)[C@H](CC(C)C)NC(=O)CNC(=O)[C@H](Cc2ccccc2)NC(=O)[C@@H](NC(=O)CNC(=O)[C@H](CCCCN)NC(=O)[C@H](CO)NC(=O)[C@H](CC(C)C)NC(=O)CN)CSSC[C@@H](C(=O)O)NC(=O)CNC(=O)[C@H](CC(C)C)NC(=O)CNC(=O)[C@H](CO)NC(=O)[C@H](CCSC)NC(=O)[C@H](CO)NC(=O)CNC1=O [SEQ ID NO: 32, reference compound] |  |  | 8.7 pmol/mL | 9.5 pmol/mL | 2.17 | 2.91
CCCCCCCCCCCCCCCC(=O)NCCOCCOCC(=O)NCCOCCOCC(=O)N[C@@H](CN)C(=O)N[C@@H](CCN)C(=O)NCC(=O)N[C@@H](CC(C)C)C(=O)N[C@@H](CO)C(=O)N[C@@H](CCCCN)C(=O)NCC(=O)N[C@H]1CSSC[C@@H](C(=O)O)NC(=O)CNC(=O)[C@H](CC(C)C)NC(=O)CNC(=O)[C@H](CO)NC(=O)[C@H](CCC(N)=O)NC(=O)[C@H](CO)NC(=O)CNC(=O)[C@H]([C@@H](C)CC)NC(=O)[C@H](CCCNC(=N)N)NC(=O)[C@H](CC(=O)O)NC(=O)[C@H](CC(C)C)NC(=O)[C@H](CCCCN)NC(=O)[C@H](CC(C)C)NC(=O)CNC(=O)[C@H](Cc2ccccc2)NC1=O [SEQ ID NO: 35] ({Palmitoyl-AEEA-AEEA}-[Dap][Dab]GLSKGCFGLKLDRIGSQSGLGC-OH; disulfide 8-24; C-terminus assumed) | 12.9 | 4.13 | 65.28**** pmol/mL | 35.10** pmol/mL |  | 
CCCCCCCCCCCCCCCC(=O)NCCCC(=O)NCCCC(=O)NCCCC(=O)N[C@@H](CCN)C(=O)N[C@@H](CCN)C(=O)NCC(=O)N[C@@H](CC(C)C)C(=O)N[C@@H](CO)C(=O)N[C@@H](CCCCN)C(=O)NCC(=O)N[C@H]1CSSC[C@@H](C(=O)O)NC(=O)CNC(=O)[C@H](CC(C)C)NC(=O)CNC(=O)[C@H](CO)NC(=O)[C@H](CCC(N)=O)NC(=O)[C@H](CO)NC(=O)CNC(=O)[C@H]([C@@H](C)CC)NC(=O)[C@H](CCCNC(=N)N)NC(=O)[C@H](CC(=O)O)NC(=O)[C@H](CC(C)C)NC(=O)[C@H](CCCCN)NC(=O)[C@H](CC(C)C)NC(=O)CNC(=O)[C@H](Cc2ccccc2)NC1=O [SEQ ID NO: 36] ({Palmitoyl-GABA-GABA-GABA}-[Dab][Dab]GLSKGCFGLKLDRIGSQSGLGC-OH; disulfide 8-24; C-terminus assumed) | 7.57 | 2.57 | 54.61*** pmol/mL | 41.75** pmol/mL |  | 
CCCCCCCCCCCCCCCC(=O)NCCCC(=O)NCCCC(=O)N[C@@H](CCN)C(=O)N[C@@H](CCN)C(=O)NCC(=O)N[C@@H](CC(C)C)C(=O)N[C@@H](CO)C(=O)N[C@@H](CCCCN)C(=O)NCC(=O)N[C@H]1CSSC[C@@H](C(=O)O)NC(=O)CNC(=O)[C@H](CC(C)C)NC(=O)CNC(=O)[C@H](CO)NC(=O)[C@H](CCC(N)=O)NC(=O)[C@H](CO)NC(=O)CNC(=O)[C@H]([C@@H](C)CC)NC(=O)[C@H](CCCNC(=N)N)NC(=O)[C@H](CC(=O)O)NC(=O)[C@H](CC(C)C)NC(=O)[C@H](CCCCN)NC(=O)[C@H](CC(C)C)NC(=O)CNC(=O)[C@H](Cc2ccccc2)NC1=O [SEQ ID NO: 37] ({Palmitoyl-GABA-GABA}-[Dab][Dab]GLSKGCFGLKLDRIGSQSGLGC-OH; disulfide 8-24; C-terminus assumed) | 11.9 | 5.77 | 39.77* pmol/mL | 22.71** pmol/mL |  | 
CCCCCCCCCCCCCCCC(=O)N[C@@H](CCC(=O)O)C(=O)NCCOCCOCC(=O)NCCOCCOCC(=O)N[C@@H](CCN)C(=O)N[C@@H](CCN)C(=O)NCC(=O)N[C@@H](CC(C)C)C(=O)N[C@@H](CO)C(=O)N[C@@H](CCCCN)C(=O)NCC(=O)N[C@H]1CSSC[C@@H](C(=O)O)NC(=O)CNC(=O)[C@H](CC(C)C)NC(=O)CNC(=O)[C@H](CO)NC(=O)[C@H](CCC(N)=O)NC(=O)[C@H](CO)NC(=O)CNC(=O)[C@H]([C@@H](C)CC)NC(=O)[C@H](CCCNC(=N)N)NC(=O)[C@H](CC(=O)O)NC(=O)[C@H](CC(C)C)NC(=O)[C@H](CCCCN)NC(=O)[C@H](CC(C)C)NC(=O)CNC(=O)[C@H](Cc2ccccc2)NC1=O [SEQ ID NO: 38] (Palmitoyl-E[AEEA][AEEA][Dab][Dab]GLSKGCFGLKLDRIGSQSGLGC-OH; disulfide 11-27; C-terminus assumed) | 31.7 | 25.9 | 74.69* pmol/mL | 38.95*** pmol/mL |  | 
CCCCCCCCCCCCCCCC(=O)NCCOCCOCC(=O)NCCOCCOCC(=O)NCCOCCOCC(=O)N[C@@H](CCN)C(=O)NCC(=O)N[C@@H](CC(C)C)C(=O)N[C@@H](CO)C(=O)N[C@@H](CCCCN)C(=O)NCC(=O)N[C@H]1CSSC[C@@H](C(=O)O)NC(=O)CNC(=O)[C@H](CC(C)C)NC(=O)CNC(=O)[C@H](CO)NC(=O)[C@H](CCC(N)=O)NC(=O)[C@H](CO)NC(=O)CNC(=O)[C@H]([C@@H](C)CC)NC(=O)[C@H](CCCNC(=N)N)NC(=O)[C@H](CC(=O)O)NC(=O)[C@H](CC(C)C)NC(=O)[C@H](CCCCN)NC(=O)[C@H](CC(C)C)NC(=O)CNC(=O)[C@H](Cc2ccccc2)NC1=O [SEQ ID NO: 41] ({Palmitoyl-AEEA-AEEA-AEEA}-[Dab]GLSKGCFGLKLDRIGSQSGLGC-OH; disulfide 7-23; C-terminus assumed) | 26.7 | 30.1 | 124.77*** pmol/mL | 67.78**** pmol/mL |  | 

The next lines start with results.

level at 2 h ([1]; sc, 1 mg/kg) [ng/mL] | level at 6 h ([1]; sc, 1 mg/kg) [ng/mL] | Compound | Plasma concentration of cGMP, 2 hr (cGMP) | Plasma concentration of cGMP, 6 hr (cGMP) | level at 2 h ([1]; mice, SC bolus 1.0 mg/kg (≤0.45 μmol/kg), 2 hr, ELISA, n = 3-5, read-out: Plasma concentration of respective Natriuretic Peptide, ANP, BNP, or CNP, 2 hr) [ng/mL] | level at 6 h ([1]; mice, SC bolus 1.0 mg/kg (≤0.45 μmol/kg), 6 hr, ELISA, n = 3-5, read-out: Plasma concentration of respective Natriuretic Peptide, ANP, BNP, or CNP, 6 hr) [ng/mL]
75.9 | 68.2 | CC[C@H](C)[C@@H]1NC(=O)[C@H](CCCNC(=N)N)NC(=O)[C@H](CC(=O)O)NC(=O)[C@H](CC(C)C)NC(=O)[C@H](CCCCN)NC(=O)[C@H](CC(C)C)NC(=O)CNC(=O)[C@H](Cc2ccccc2)NC(=O)[C@@H](NC(=O)CNC(=O)[C@H](CCCCN)NC(=O)[C@H](CO)NC(=O)[C@H](CC(C)C)NC(=O)CNC(=O)[C@H](CCN)NC(=O)[C@H](CCN)NC(=O)COCCOCCNC(=O)COCCOCCNC(=O)COCCOCCNC(=O)CCCCCCCCCCCCCCCCC(=O)O)CSSC[C@@H](C(=O)O)NC(=O)CNC(=O)[C@H](CC(C)C)NC(=O)CNC(=O)[C@H](CO)NC(=O)[C@H](CCC(N)=O)NC(=O)[C@H](CO)NC(=O)CNC1=O [SEQ ID NO: 33] ({C18 diacid-AEEA-AEEA-AEEA}-[Dab][Dab]GLSKGCFGLKLDRIGSQSGLGC-OH; disulfide 8-24; C-terminus assumed) | 25.91** pmol/mL | 31.61* pmol/mL |  | 
75.5 | 41 | CC[C@H](C)[C@@H]1NC(=O)[C@H](CCCNC(=N)N)NC(=O)[C@H](CC(=O)O)NC(=O)[C@H](CC(C)C)NC(=O)[C@H](CCCCN)NC(=O)[C@H](CC(C)C)NC(=O)CNC(=O)[C@H](Cc2ccccc2)NC(=O)[C@@H](NC(=O)CNC(=O)[C@H](CCCCN)NC(=O)[C@H](CO)NC(=O)[C@H](CC(C)C)NC(=O)CNC(=O)[C@H](CCN)NC(=O)[C@H](CCN)NC(=O)COCCOCCNC(=O)COCCOCCNC(=O)CCCCCCCCCCCCCCCCC(=O)O)CSSC[C@@H](C(=O)O)NC(=O)CNC(=O)[C@H](CC(C)C)NC(=O)CNC(=O)[C@H](CO)NC(=O)[C@H](CCC(N)=O)NC(=O)[C@H](CO)NC(=O)CNC1=O [SEQ ID NO: 34] ({C18 diacid-AEEA-AEEA}-[Dab][Dab]GLSKGCFGLKLDRIGSQSGLGC-OH; disulfide 8-24; C-terminus assumed) | 15.78* pmol/mL | 33.6 pmol/mL |  | 
50.7 | 23.7 | CC[C@H](C)[C@@H]1NC(=O)[C@H](CCCNC(=N)N)NC(=O)[C@H](CC(=O)O)NC(=O)[C@H](CC(C)C)NC(=O)[C@H](CCCCN)NC(=O)[C@H](CC(C)C)NC(=O)CNC(=O)[C@H](Cc2ccccc2)NC(=O)[C@@H](NC(=O)CNC(=O)[C@H](CCCCN)NC(=O)[C@H](CO)NC(=O)[C@H](CC(C)C)NC(=O)CNC(=O)[C@H](CN)NC(=O)[C@H](CN)NC(=O)COCCOCCNC(=O)COCCOCCNC(=O)COCCOCCNC(=O)CCCCCCCCCCCCCCCCC(=O)O)CSSC[C@@H](C(=O)O)NC(=O)CNC(=O)[C@H](CC(C)C)NC(=O)CNC(=O)[C@H](CO)NC(=O)[C@H](CCC(N)=O)NC(=O)[C@H](CO)NC(=O)CNC1=O [SEQ ID NO: 39] ({C18 diacid-AEEA-AEEA-AEEA}-[Dap][Dap]GLSKGCFGLKLDRIGSQSGLGC-OH; disulfide 8-24; C-terminus assumed) | 13.29 pmol/mL | 43.60 pmol/mL |  | 
